Data on twelve compounds can be found in patent publication US20250163057A1, “DCN-1 MODULATING COMPOUNDS AND METHODS OF USE THEREOF” (Cellarity, Inc., priority 2023, published 2025).

Bounds are passed on as bounds.

Experiment [1] concerns Cullin-3 (CUL3) neddylation. As to the kind of experiment: AlphaLISA assay for Cullin-3 (CUL3) neddylation in TF 1 cells. In kind it is cell-based. Conditions: 3 hours treatment. The gist of the method: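 Neddylated CUL3 was quantified by AlphaLISA in lysates of TF 1 cells exposed for 3 h to test compound in IMDM without supplements. Percent inhibition set between vehicle and 1 μM DI-1548 positive control; IC50 derived by Hill-equation fitting of dose-response curves.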
A general note: In Alpha technology, singlet oxygen from a donor bead excites a nearby acceptor bead.

Experiment [2] has as its system fetal hemoglobin protein. The experiment is described as follows: HbF HPLC Cell Culture Assay. The format is cell-based. Conditions: for EC50: 336 h, HbF induction, Day 14 of culture; for Hemoglobin HPLC Ymax obs (%): relative to a control compound. The gist of the method: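 Cells were expanded in SFEM with CC100 and TPO, then differentiated through three erythroid media phases (EPO 2.5 U/ml, holo-transferrin, insulin, plus SCF, and IL-3 in phase 1). Compound was re-added at each passage (treatment day, days 0, 3, 5, 7, 10, 12). Fetal hemoglobin was quantified by HPLC on pellets from terminal day 14.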

Experiment [3] concerns the target DCN1 protein (Homo sapiens (Human), UniProt Q96GG9). The experiment is described as follows: Intact Protein MS Analysis with the RapidFire-TOF System (covalent adduct formation). In kind it is binding. Particulars: MS Emax; 400 nM DCN1, 3 hours at room temperature. In short, it runs like this: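 Tag-cleaved human DCN1 (400 nM) expressed in E. coli, in 25 mM Tris-HCl, 200 mM NaCl, 1 mM DTT, was incubated with 11 compound concentrations for 3 h at room temperature and quenched with 0.2% formic acid. Intact-protein Q-TOF MS with deconvolution detected the compound adduct mass.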

DCN1 protein, sequence (Q96GG9 whole entry): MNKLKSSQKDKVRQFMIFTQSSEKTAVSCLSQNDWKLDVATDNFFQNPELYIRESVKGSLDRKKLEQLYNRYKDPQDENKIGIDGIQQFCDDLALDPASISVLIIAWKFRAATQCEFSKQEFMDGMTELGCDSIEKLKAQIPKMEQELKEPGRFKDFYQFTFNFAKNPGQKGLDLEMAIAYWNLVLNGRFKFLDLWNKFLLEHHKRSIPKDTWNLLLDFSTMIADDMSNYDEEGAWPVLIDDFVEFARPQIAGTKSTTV

For `CCN1C(=O)[C@@H](NC(=O)c2cccc(C(F)(F)F)c2)[C@@H](C2CC2)c2c(C(=O)N3C[C@H](OC)C[C@H]3C#N)nn(C3CCOCC3)c21` [Compound I-377], the IC50 (usually the concentration at which inhibition is half-maximal) in experiment [1] (Homo sapiens, TF-1, 3 h) was ≤ 100 nM. Besides, in experiment [2], the 50% effective concentration (EC50) – broadly, the concentration at which the effect is half-maximal – is 50 to 200 nM; the “Hemoglobin HPLC Ymax obs (%)” value is “++ (Hemoglobin HPLC Ymax greater than 65.0 and less than or equal to 100.0)”. Besides, the “% Adduct Formation” value in experiment [3] was “+++ (MS Emax % adduct formation greater than 80.0 and less than or equal to 100.0)”.
Regarding `CCN1C(=O)[C@@H](NC(=O)c2cccc(C(F)(F)F)c2)[C@@H](c2ccc(F)cc2)c2c(C(=O)N3CCC[C@H]3C#N)nn(-c3ccccc3)c21` [Compound I-278], in experiment [1] (Homo sapiens, TF-1, 3 h), the IC50 is ≤ 100 nM. In addition, in experiment [2], the EC50 was > 200 nM; the “Hemoglobin HPLC Ymax obs (%)” value was “+ (Hemoglobin HPLC Ymax greater than or equal to 0.0 and less than or equal to 65.0)”. In addition, the “% Adduct Formation” value in experiment [3] was “+++ (MS Emax % adduct formation greater than 80.0 and less than or equal to 100.0)”.
Consider `CCN1C(=O)[C@@H](NC(=O)c2cccc(C(F)(F)F)c2)[C@@H](c2ccc(F)cc2)c2c([C@@H](C)NC#N)nn(-c3ccccc3)c21` [Compound I-73, N-((4S,5S)-3-((R)-1-cyanamidoethyl)-7-ethyl-4-(4-fluorophenyl)-6-oxo-1-phenyl-4,5,6,7-tetrahydro-1H-pyrazolo[3,4-b]pyridin-5-yl)-3-(trifluoromethyl)benzamide], for which the IC50 in experiment [1] (Homo sapiens, TF-1, 3 h) is ≤ 100 nM. Besides, in experiment [2], the EC50 is > 200 nM; the “Hemoglobin HPLC Ymax obs (%)” value was “++ (Hemoglobin HPLC Ymax greater than 65.0 and less than or equal to 100.0)”. Moreover, in experiment [3], the “% Adduct Formation” value is “+++ (MS Emax % adduct formation greater than 80.0 and less than or equal to 100.0)”.
`CCN1C(=O)[C@@H](NC(=O)c2cccc(C(F)(F)F)c2)[C@@H](c2ccc(F)cc2)c2c(C(=O)NC3(C#N)CC3)nn(-c3ccccc3)c21` [Compound I-112] registered a 50% inhibitory concentration (IC50) in experiment [1] (Homo sapiens, TF-1, 3 h) of 100 to 1000 nM. In experiment [2], the half-maximal effective concentration (EC50) is > 200 nM and the “Hemoglobin HPLC Ymax obs (%)” value is “+++ (Hemoglobin HPLC Ymax greater than 100.0)”. Besides, the “% Adduct Formation” value in experiment [3] was “+++ (MS Emax % adduct formation greater than 80.0 and less than or equal to 100.0)”.
With `CCN1C(=O)[C@@H](NC(=O)c2cccc(C(F)(F)F)c2)[C@@H](C2CC2)c2c(C(=O)N3[C@H](C#N)C[C@H]4C[C@H]43)nn(C3CCOCC3)c21` [Compound I-256, N-((4S,5S)-3-((1R,3S,5R)-3-cyano-2-azabicyclo[3.1.0]hexane-2-carbonyl)-4-cyclopropyl-7-ethyl-6-oxo-1-(tetrahydro-2H-pyran-4-yl)-4,5,6,7-tetrahydro-1H-pyrazolo[3,4-b]pyridin-5-yl)-3-(trifluoromethyl)benzamide], the half-maximal inhibitory concentration (IC50) in experiment [1] (Homo sapiens, TF-1, 3 h) is ≤ 100 nM. In addition, in experiment [2], the EC50 is 50 to 200 nM; the “Hemoglobin HPLC Ymax obs (%)” value is “++ (Hemoglobin HPLC Ymax greater than 65.0 and less than or equal to 100.0)”. Further, the “% Adduct Formation” value in experiment [3] was “+++ (MS Emax % adduct formation greater than 80.0 and less than or equal to 100.0)”.
In the case of `CCN1C(=O)[C@@H](NC(=O)c2cccc(C(F)(F)F)c2)[C@@H](c2ccc(F)cc2)c2c(C(=O)N3[C@H](C#N)C[C@H]4C[C@H]43)nn(-c3ccccc3)c21` [Compound I-277], the concentration for half-maximal inhibition (IC50) in experiment [1] (Homo sapiens, TF-1, 3 h) is ≤ 100 nM. Further, in experiment [2], the EC50 was ≤ 50 nM; the “Hemoglobin HPLC Ymax obs (%)” value was “++ (Hemoglobin HPLC Ymax greater than 65.0 and less than or equal to 100.0)”. Also, the “% Adduct Formation” value in experiment [3] is “+++ (MS Emax % adduct formation greater than 80.0 and less than or equal to 100.0)”.
Turning to `CCN1C(=O)[C@@H](NC(=O)c2cccc(C(F)(F)F)c2)[C@@H](c2ccc(F)cc2)c2c(C(=O)N3CCNCC3C#N)nn(C3CCOCC3)c21` (stereo partly drawn) [Compound I-334], the half-inhibitory concentration (IC50) in experiment [1] (Homo sapiens, TF-1, 3 h) is ≤ 100 nM. In experiment [2], the EC50 fell in the range of 50 to 200 nM; the “Hemoglobin HPLC Ymax obs (%)” value is “++ (Hemoglobin HPLC Ymax greater than 65.0 and less than or equal to 100.0)”. Moreover, the “% Adduct Formation” value in experiment [3] is “+++ (MS Emax % adduct formation greater than 80.0 and less than or equal to 100.0)”.
On to `CCN1C(=O)[C@@H](NC(=O)c2cccc(C(F)(F)F)c2)[C@@H](c2ccc(F)cc2)c2c(NC(=O)C3=CCC3)nn(-c3ccccc3)c21` (racemic) [Compound I-152], for which the IC50 in experiment [1] (Homo sapiens, TF-1, 3 h) is 100 to 1000 nM. Moreover, in experiment [2], the EC50 is > 200 nM; the “Hemoglobin HPLC Ymax obs (%)” value is “++ (Hemoglobin HPLC Ymax greater than 65.0 and less than or equal to 100.0)”. Also, in experiment [3], the “% Adduct Formation” value was “+ (MS Emax % adduct formation greater than or equal to 0.0 and less than or equal to 30.0)”.
Consider `CCN1C(=O)[C@@H](NC(=O)c2cccc(C(F)(F)F)c2)[C@@H](c2ccc(F)cc2)c2c(C(=O)N3CCC[C@H]3C#N)nn(C3CCOCC3)c21` [Compound I-350], for which the 50% inhibitory concentration (IC50) in experiment [1] was ≤ 100 nM. In experiment [2], the concentration giving a half-maximal response (EC50) is ≤ 50 nM; the “Hemoglobin HPLC Ymax obs (%)” value is “++ (Hemoglobin HPLC Ymax greater than 65.0 and less than or equal to 100.0)”. Moreover, the “% Adduct Formation” value in experiment [3] was “++ (MS Emax % adduct formation greater than 30.0 and less than or equal to 80.0)”.
On to `CCN1C(=O)[C@@H](NC(=O)c2cccc(C(F)(F)F)c2)[C@@H](c2ccc(F)cc2)c2c(CNC#N)nn(-c3ccccc3)c21` [Compound I-140, N-[(4S, 5S)-3-[(cyanoamino)methyl]-7-ethyl-4-(4-fluorophenyl)-6-oxo-1-phenyl-4,5-dihydropyrazolo[3,4-b]pyridine-5-yl]-3-(trifluoromethyl) benzamide], for which the IC50 in experiment [1] (Homo sapiens, TF-1, 3 h) is ≤ 100 nM. In experiment [2], the concentration for a half-maximal effect (EC50) was > 200 nM; the “Hemoglobin HPLC Ymax obs (%)” value is “+ (Hemoglobin HPLC Ymax greater than or equal to 0.0 and less than or equal to 65.0)”. The “% Adduct Formation” value in experiment [3] was “+++ (MS Emax % adduct formation greater than 80.0 and less than or equal to 100.0)”.
As for `CCN1C(=O)[C@@H](NC(=O)c2cccc(C(F)(F)F)c2)[C@@H](C2CC2)c2c(C(=O)N3C[C@H](F)C[C@H]3C#N)nn(C3CCOCC3)c21` [Compound I-372], the IC50 in experiment [1] (Homo sapiens, TF-1, 3 h) is ≤ 100 nM. In experiment [2], the EC50 fell in the range of 50 to 200 nM; the “Hemoglobin HPLC Ymax obs (%)” value was “++ (Hemoglobin HPLC Ymax greater than 65.0 and less than or equal to 100.0)”. Further, the “% Adduct Formation” value in experiment [3] is “+++ (MS Emax % adduct formation greater than 80.0 and less than or equal to 100.0)”.
The compound `CCN1C(=O)[C@@H](NC(=O)c2cccc(C(F)(F)F)c2)[C@@H](c2ccc(F)cc2)c2c(CN(C)C#N)nn(-c3ccccc3)c21` [Compound I-92] returned an IC50 in experiment [1] (Homo sapiens, TF-1, 3 h) of 100 to 1000 nM. Besides, in experiment [2], the 50% effective concentration (EC50) is > 200 nM; the “Hemoglobin HPLC Ymax obs (%)” value was “+ (Hemoglobin HPLC Ymax greater than or equal to 0.0 and less than or equal to 65.0)”. For the same compound, the “% Adduct Formation” value in experiment [3] was “+++ (MS Emax % adduct formation greater than 80.0 and less than or equal to 100.0)”.
